Laboratory results as given in patent US9242984B2, “Pyrazolyl derivatives as Syk inhibitors” (Merck Sharp & Dohme Corp., priority 2012, dated 2016).
pIC50: −log10 of the molar value. Like-named read-outs stand apart in the source and are kept apart here.

Target: T1, recombinant human Syk (GST-hSyk fusion protein) (Homo sapiens, UniProt P43405)
T1 construct: purchased Carna Biosciences 08-176
Experiment: Homogeneous Time-Resolved Fluorescence (HTRF) assay for the recombinant human Syk enzyme
Type: biochemical
Settings: 10-dose titration, 25 μM ATP
In short: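 GST-hSyk (5 pM) preincubated 10 min with compound (0.1% DMSO) in 15 mM Tris-HCl pH 7.5, 2 mM DTT; reaction started with 250 nM biotinylated peptide, 5 mM Mg, 25 μM ATP, 45 min, room temperature. EDTA quench, Eu-anti-phosphotyrosine/SA-APC HTRF read after 30 min; IC50 from 10-dose titration (10 μM–0.508 nM), four-parameter fit.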

[1] = IC50 class, read-out: rhSYK Activity

pIC50 [1] | pIC50 (read-out: rhSYK IC50) | Molecule
≥ 7.00 |  | Cc1cc(Nc2nccc(C(F)F)n2)cc(-c2cnn(C(C[C@H](C)O)[C@H](C)O)c2)c1 (stereo in doubt) [Example 2.51, 3-[4-(3-{[4-(difluoromethyl)pyrimidin-2-yl]amino}-5-methylphenyl)-1H-pyrazol-1-yl]hexane-2,5-diol]
≥ 7.00 | 7.60 | Cc1cc(Nc2nccc(C(F)F)n2)cc(-c2cnn(CCNC(=O)C3CC3)c2)c1 [Example 26.1, N-(2-(4-(3-((4-(Difluoromethyl)pyrimidin-2-yl)amino)-5-methylphenyl)-1H-pyrazol-1-yl)ethyl)cyclopropanecarboxamide]
≥ 7.00 |  | CCOC(=O)CCn1cc(-c2cc(C)cc(Nc3nccc(C(F)(F)F)n3)c2)cn1 [Example 2.43, ethyl 3-[4-(3-methyl-5-{[4-(trifluoromethyl)pyrimidin-2-yl]amino}phenyl)-1H-pyrazol-1-yl]propanoate]
≥ 7.00 |  | Cc1cc(Nc2nccc(C(F)F)n2)cc(-c2cnn(C(C)C3CNC(=O)C3)c2)c1 (stereo not drawn) [Example 2.70, 4-{1-[4-(3-{[4-(difluoromethyl)pyrimidin-2-yl]amino}-5-methylphenyl)-1H-pyrazol-1-yl]ethyl}pyrrolidin-2-one]
≥ 7.00 | 8.80 | Cc1cc(Nc2nccc(C(F)F)n2)cc(-c2cnn(CC(O)(CO)C(F)(F)F)c2)c1 (single isomer, unassigned) [Example 32.1, (S or R)-2-((4-(3-((4-(difluoromethyl)pyrimidin-2-yl)amino)-5-methylphenyl)-1H-pyrazol-1-yl)methyl)-3,3,3-trifluoropropane-1,2-diol]
≥ 7.00 |  | Cc1cc(Nc2nccc(C(F)F)n2)cc(-c2cnn(CC(C)(C)NS(=O)(=O)N3CCOCC3)c2)c1 [Example 27.6, N-{2-[4-(3-{[4-(difluoromethyl)pyrimidin-2-yl]amino}-5-methylphenyl)-1H-pyrazol-1-yl]-1,1-dimethylethyl}morpholine-4-sulfonamide]
≥ 7.00 |  | Cc1cc(Nc2nccc(C(F)(F)F)n2)cc(-c2cnn(C3CCC(C(=O)O)CC3O)c2)c1 (stereo not drawn) [Example 5.38, 3-hydroxy-4-[4-(3-methyl-5-{[4-(trifluoromethyl)pyrimidin-2-yl]amino}phenyl)-1H-pyrazol-1-yl]cyclohexanecarboxylic acid]
≥ 7.00 |  | 4-{[4-(4-methyl-6-{[4-(trifluoromethyl)pyridin-2-yl]amino}pyridin-2-yl)-1H-pyrazol-1-yl]-methyl}pyrrolidin-2-one [Example 1.38]
≥ 7.00 |  | Cc1cc(Nc2nccc(C(F)F)n2)cc(-c2cnn(CC3OC(=O)NC3C)c2)c1 (single isomer, unassigned) [Example 23.14, 5-{[4-(3-{[4-(difluoromethyl)pyrimidin-2-yl]amino}-5-methylphenyl)-1H-pyrazol-1-yl]methyl}-4-methyl-1,3-oxazolidin-2-one]
≥ 7.00 |  | Cc1cc(Nc2nccc(OC(C)C)n2)cc(-c2cnn(C[C@H](O)C(N)=O)c2)c1 [Example 6.6, (2S)-2-hydroxy-3-[4-(3-methyl-5-{[4-(1-methyl-ethoxy)pyrimidin-2-yl]amino}-phenyl)-1H-pyrazol-1-yl]-propanamide]
≥ 7.00 |  | COc1ccnc(Nc2cccc(-c3cnn(C[C@@H](O)C(=O)O)c3)c2)n1 [Example 11.11, (2R)-2-hydroxy-3-(4-{3-[(4-methoxy-pyrimidin-2-yl)amino]phenyl}-1H-pyrazol-1-yl)propanoic acid]
≥ 7.00 |  | Cc1cc(Nc2nccc(C(F)(F)F)n2)cc(-c2cnn(CC3OC(=O)NC3C)c2)c1 (stereo not drawn) [Example 3.119, 4-methyl-5-{[4-(3-methyl-5-{[4-(trifluoromethyl)pyrimidin-2-yl]amino}phenyl)-1H-pyrazol-1-yl]methyl}-1,3-oxazolidin-2-one]
≥ 7.00 | 8.89 | Cc1cc(Nc2nccc(C(F)F)n2)cc(-c2cnn(C(C)C(C)(O)CO)c2)c1 (single isomer, unassigned) [Example 22.1, 3-(4-(3-((4-(Difluoromethyl)pyrimidin-2-yl)amino)-5-methylphenyl)-1H-pyrazol-1-yl)-2-methylbutane-1,2-diol]
6.00 to 7.00 |  | Cc1ccnc(Nc2cccc(-n3cc(CCC(=O)O)cn3)n2)c1 [Example 18.2, 3-(1-{6-[(4-methylpyridin-2-yl)amino]pyridin-2-yl}-1H-pyrazol-4-yl)propanoic acid]
≥ 7.00 | 8.59 | Cc1cc(Nc2nccc(C(F)F)n2)cc(-c2cnn(C3CCC(C)(C)C(O)C3O)c2)c1 (stereo not drawn) [Example 22.7, 6-[4-(3-{[4-(difluoromethyl)pyrimidin-2-yl]amino}-5-methylphenyl)-1H-pyrazol-1-yl]-3,3-dimethylcyclohexane-1,2-diol]
≥ 7.00 |  | Cc1cc(Nc2nccc(C(C)(F)F)n2)cc(-c2cnn(CC(C)(O)CC#N)c2)c1 (stereo not drawn) [Example 20.10, 4-[4-(3-{[4-(1,1-difluoroethyl)pyrimidin-2-yl]amino}-5-methylphenyl)-1H-pyrazol-1-yl]-3-hydroxy-3-methylbutanenitrile]

pIC50 [1] | pIC50 (read-out: rhSYK IC50) | Molecule
6.00 to 7.00 |  | Cc1cc(Nc2nccc(C(F)(F)F)n2)cc(-c2cnn(CC(=O)N3CCOCC3(C)C)c2)c1 [Example 3.13, N-(3-{1-[2-(3,3-dimethylmorpholin-4-yl)-2-oxoethyl]-1H-pyrazol-4-yl}-5-methylphenyl)-4-(trifluoromethyl)pyrimidin-2-amine]
≥ 7.00 | 8.59 | Cc1cc(Nc2nccc(C(F)F)n2)cc(-c2cnn(C3CCCCC(O)C3O)c2)c1 (stereo not drawn) [Example 22.15, 3-[4-(3-{[4-(difluoromethyl)pyrimidin-2-yl]amino}-5-methylphenyl)-1H-pyrazol-1-yl]cycloheptane-1,2-diol]
≥ 7.00 |  | Cc1cc(Nc2nccc(C(F)F)n2)cc(-c2cnn(CC3CC(=O)NC3=O)c2)c1 (stereo not drawn) [Example 2.73, 3-{[4-(3-{[4-(difluoromethyl)pyrimidin-2-yl]amino}-5-methylphenyl)-1H-pyrazol-1-yl]methyl}pyrrolidine-2,5-dione]
≥ 7.00 |  | Cc1cc(Nc2nccc(C(F)(F)F)n2)cc(-n2cc(C3(O)CCC(C(=O)O)CC3)cn2)c1 (stereo not drawn) [Example 19.11, 4-hydroxy-4-[1-(3-methyl-5-{[4-(trifluoromethyl)pyrimidin-2-yl]amino}phenyl)-1H-pyrazol-4-yl]cyclohexanecarboxylic acid]
≥ 7.00 |  | Cc1cc(Nc2nccc(C(F)(F)F)n2)cc(-c2cnn(C[C@@H](O)CO)c2)c1 [Example 3.41, (2R)-3-[4-(3-methyl-5-{[4-(trifluoromethyl)pyrimidin-2-yl]amino}-phenyl)-1H-pyrazol-1-yl]propane-1,2-diol]
≥ 7.00 |  | Cc1cc(Nc2nccc(C(F)F)n2)cc(-c2cnn(CCNS(=O)(=O)C3CC3)c2)c1 [Example 27.13, N-{2-[4-(3-{[4-(difluoromethyl)pyrimidin-2-yl]amino}-5-methylphenyl)-1H-pyrazol-1-yl]ethyl}cyclopropanesulfonamide]
≥ 7.00 |  | Cc1cc(Nc2nccc(C(F)F)n2)cc(-c2cnn(CC(O)C(C)C)c2)c1 (stereo not drawn) [Example 5.23, 1-[4-(3-{[4-(difluoromethyl)pyrimidin-2-yl]amino}-5-methylphenyl)-1H-pyrazol-1-yl]-3-methylbutan-2-ol]
≥ 7.00 |  | COC(=O)[C@@H](O)Cn1cc(-c2cc(C)cc(Nc3nccc(C(F)(F)F)n3)c2)cn1 [Example 5.2, methyl (2S)-2-hydroxy-3-[4-(3-methyl-5-{[4-(trifluoromethyl)-pyrimidin-2-yl]amino}phenyl)-1H-pyrazol-1-yl]propanoate]
≥ 7.00 |  | Cc1cc(Nc2ncc(F)c(C)n2)cc(-c2cnn(CCC(N)=O)c2)c1 [Example 2.6, 3-(4-{3-[(5-fluoro-4-methylpyrimidin-2-yl)amino]-5-methylphenyl}-1H-pyrazol-1-yl)propanamide]
≥ 7.00 |  | Cc1cc(Nc2nccc(C(F)F)n2)cc(-c2cnn(C(C[C@H](C)O)[C@H](C)O)c2)c1 (stereo in doubt) [Example 2.55, 3-[4-(3-{[4-(difluoromethyl)pyrimidin-2-yl]amino}-5-methylphenyl)-1H-pyrazol-1-yl]hexane-2,5-diol]
≥ 7.00 |  | CCOC(=O)C(C)n1cc(-c2cc(C)cc(Nc3nccc(C(F)(F)F)n3)c2)cn1 (stereo not drawn) [Example 3.30, ethyl 2-[4-(3-methyl-5-{[4-(trifluoromethyl)-pyrimidin-2-yl]amino}phenyl)-1H-pyrazol-1-yl]propanoate]
≥ 7.00 | 8.89 | Cc1cc(Nc2nccc(C(F)F)n2)cc(-c2cnn(C3CCCC(O)C3O)c2)c1 (single isomer, unassigned) [Example 10.6, 3-[4-(3-{[4-(difluoromethyl)pyrimidin-2-yl]amino}-5-methylphenyl)-1H-pyrazol-1-yl]cyclohexane-1,2-diol]
≥ 7.00 |  | CCOC(=O)C(O)Cn1cc(-c2cc(C)cc(Nc3nccc(C(F)F)n3)c2)cn1 (stereo not drawn) [Example 5.20, ethyl 3-[4-(3-{[4-(difluoromethyl)pyrimidin-2-yl]amino}-5-methylphenyl)-1H-pyrazol-1-yl]-2-hydroxypropanoate]
≥ 7.00 | 8.44 | Cc1cc(Nc2nccc(C(F)(F)F)n2)cc(-c2cnn(CC(C)(O)CO)c2)c1 (single isomer, unassigned) [Example 21.1, 2-Methyl-3-(4-(3-methyl-5-((4-(trifluoromethyl)pyrimidin-2-yl)amino)phenyl)-1H-pyrazol-1-yl)propane-1,2-diol]
≥ 7.00 |  | Cc1cc(Nc2nccc(C(F)F)n2)cc(-c2cnn(C[C@@H]3CNCCO3)c2)c1 [Example 2.83, 4-(difluoromethyl)-N-(3-methyl-5-{1-[(2S)-morpholin-2-ylmethyl]-1H-pyrazol-4-yl}phenyl)pyrimidin-2-amine]
≥ 7.00 |  | Cc1cc(Nc2nccc(C(F)F)n2)cc(-c2cnn(CC3OC(=O)NC34CC4)c2)c1 (stereo not drawn) [Example 3.92, 7-{[4-(3-{[4-(difluoromethyl)pyrimidin-2-yl]amino}-5-methylphenyl)-1H-pyrazol-1-yl]methyl}-6-oxa-4-azaspiro[2.4]heptan-5-one]
